Results: patent US20180255776A1, “HERBICIDAL COMPOSITIONS CONTAINING 4-AMINO-3-CHLORO-6-(4-CHLORO-2-FLUORO-3-METHOXYPHENYL) PYRIDINE-2-CARBOXYLIC ACID OR A DERIVATIVE THEREOF, A TRIAZOLOPYRIMIDINE SULFONAMIDE HERBICIDE OR A DERIVATIVE THEREOF, AND GLYPHOSATE OR A DERIVATIVE THEREOF” (DOW AGROSCIENCES LLC, priority 2015, published 2018)
Counter-ions that a name gives are not always drawn.

Key:
Test in all cases: Post-emergence field trial, visual % weed control
Type in all cases: in vivo
[1] = system: Commelina benghalensis (hairy wandering Jew, COMBE); details: 35DAA, Glyphosate DMA salt 960 g ai/ha
Description: (§1) Treatments consisted of the methyl ester of 4-amino-3-chloro-6-(4-chloro-2-fluoro-3-methoxyphenyl)pyridine-2-carboxylic acid (Cmpd 1) and diclosulam in combination as GF-3220. […] Glyphosate dimethylammonium salt was applied as various commercial formulations containing 480 grams acid equivalent per liter (g ae/L).
(§2) Field trials were conducted under standard field conditions. Plot sizes varied from 3-4 meters (m) wide by 5-10 m long. Treatments were applied with small plot backpack sprayers, using pressurized carbon dioxide (CO2) as propellant. Pressure varied from 30-50 pounds per square inch (PSI), with spray tips typically of a Flat Fan type applying water diluent at 100-150 liters per hectare (L/ha). Boom sizes varied from 3-4 m in width. Weed sizes varied, but all treatments were applied as post-emergence treatments to weeds from 2 leaf to 2 tiller growth stages varying from 2-15 inches in height. No additional adjuvant was mixed with the treatments applied in the field.
(§3) The weed spectrum included, but was not limited to, Commelina benghalensis (hairy wandering Jew, COMBE), Echinochloa crus-galli (barnyardgrass, ECHCG), Euphorbia heterophylla (wild poinsettia, EPHHL), Conyza bonariensis (hairy fleabane, ERIBO), Conyza canadensis (horseweed, ERICA), Conyza sumatrensis (Guernsey fleabane, ERISU) and Ipomoea grandifolia (Corda-de-viola, IAQGR).
(§4) The values reported are percent (%) control visually rated. The predicted percent (%) weed control was determined using Colby's equation.

[2] = system: Conyza bonariensis (hairy fleabane, ERIBO); details: Glyphosate DMA salt 960 g ai/ha
Description: as §1, §2, §3, §4

[3] = system: Conyza canadensis (horseweed, ERICA); details: Glyphosate DMA salt 1200 g ai/ha
Description: as §1, §2, §3, §4

[4] = system: Conyza sumatrensis (Guernsey fleabane, ERISU); details: Glyphosate DMA salt 1200 g ai/ha
Description: as §1, §2, §3, §4

[5] = system: Euphorbia heterophylla (wild poinsettia, EPHHL); details: 35DAA, Glyphosate DMA salt 960 g ai/ha
Description: as §1, §2, §3, §4

[6] = system: Ipomoea grandifolia (Corda-de-viola, IAQGR); details: Glyphosate DMA salt 960 g ai/ha
Description: as §1, §2, §3, §4

For O=C(O)CNCP(=O)(O)O [Glyphosate DMA salt, Glyphosate dimethylammonium salt], the “Mean % weed control” value [1] was 62.0%, the “Mean % weed control” value ([2]; 9DAA) was 10.0% and the “Mean % weed control” value ([2]; 14DAA) was 40.0%. The “Mean % weed control” value ([2]; 35DAA) was 25.0%, the “Mean % weed control” value ([2]; 67DAA) was 20.0% and the “Mean % weed control” value ([3]; 46DAA) was 25.0%. The “Mean % weed control” value ([3]; 62DAA) was 20.0%, the “Mean % weed control” value ([4]; 19DAA) was 19.0% and the “Mean % weed control” value ([4]; 29DAA) was 17.0%. The “Mean % weed control” value [5] was 7.5%, the “Mean % weed control” value ([6]; 14DAA) was 40.0% and the “Mean % weed control” value ([6]; 28DAA) was 45.0%.
